Patent US20180244699A1, “1-HYDROXY-3H-2,1-BENZOXABOROLE DERIVATIVES AND THEIR USE AS MICROBIOCIDES” (Syngenta Participations AG, priority 2015, published 2018)

Assays:
Type in all cases: cell-based
Gaeumannomyces graminis = Gaeumannomyces graminis / liquid culture (take-all of cereals); details: growth inhibition photometrically 4-5 days after application, compared to untreated control
Protocol: (§1) 6. Gaeumannomyces Graminis/Liquid Culture (Take-all of Cereals) Mycelial fragments of the fungus from cryogenic storage were directly mixed into nutrient broth (PDB potato dextrose broth). After placing a (DMSO) solution of test compound into a microtiter plate (96-well format), the nutrient broth containing the fungal spores is added. The test plates are incubated at 24° C. and the inhibition of growth is determined photometrically 4-5 days after application.

Sclerotinia sclerotiorum = Sclerotinia sclerotiorum / liquid culture (cottony rot); details: growth inhibition photometrically 3-4 days after application, compared to untreated control
Protocol: 17. Sclerotinia sclerotiorum/Liquid Culture (Cottony Rot) Mycelia fragments of a newly grown liquid culture of the fungus are directly mixed into nutrient broth (PDB potato dextrose broth). After placing a (DMSO) solution of test compound into a microtiter plate (96-well format) the nutrient broth containing the fungal material is added. The test plates are incubated at 24° C. and the inhibition of growth is determined photometrically 3-4 days after application.

[1] = test system: Mycosphaerella arachidis (Cercospora arachidicola); experiment: Mycosphaerella arachidis (Cercospora arachidicola) / liquid culture (early leaf spot); details: growth inhibition photometrically 4-5 days after application, compared to untreated control
Protocol: as §1, with “9. Mycosphaerella arachidis (Cercospora arachidicola)/Liquid” for “6. Gaeumannomyces Graminis/Liquid”, “(Early Leaf Spot) Conidia” for “(Take-all of Cereals) Mycelial fragments”, “are” for “were”

Pythium ultimum = Pythium ultimum / liquid culture (seedling damping off); details: Globisporangium ultimum, growth inhibition photometrically 2-3 days after application, compared to untreated control
How it was run: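 Fungal mycelia fragments and oospores from fresh liquid culture mixed into potato dextrose broth and added to DMSO solutions of test compound. Incubated at 24° C.; growth inhibition read photometrically 2-3 days after application.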

[2] = test system: Thanatephorus cucumeris (Rhizoctonia solani); experiment: Thanatephorus cucumeris (Rhizoctonia solani) / liquid culture (foot rot, damping-off); details: growth inhibition photometrically 3-4 days after application, compared to untreated control
Protocol: 16. Thanatephorus cucumeris (Rhizoctonia solani)/Liquid Culture (Foot Rot, Damping-Off) Mycelia fragments of a newly grown liquid culture of the fungus are directly mixed into nutrient broth (PDB potato dextrose broth). After placing a (DMSO) solution of the test compounds into a microtiter plate (96-well format), the nutrient broth containing the fungal material is added. The test plates are incubated at 24° C. and the inhibition of growth is determined photometrically 3-4 days after application.

[3] = test system: Glomerella lagenarium (Colletotrichum lagenarium); experiment: Glomerella lagenarium (Colletotrichum lagenarium) / liquid culture (anthracnose); details: Colletotrichum orbiculare, growth inhibition photometrically 3-4 days after application, compared to untreated control
Protocol: as §1, with “3. Glomerella lagenarium (Colletotrichum lagenarium)/Liquid” for “6. Gaeumannomyces Graminis/Liquid”, “(Anthracnose) Conidia” for “(Take-all of Cereals) Mycelial fragments”, “are” for “were”, “measured” for “determined”, “3-4” for “4-5”

[4] = test system: Monographella nivalis (Microdochium nivale); experiment: Monographella nivalis (Microdochium nivale) / liquid culture (foot rot cereals); details: growth inhibition photometrically 4-5 days after application, compared to untreated control
Protocol: as §1, with “8. Monographella nivalis (Microdochium nivale)/Liquid” for “6. Gaeumannomyces Graminis/Liquid”, “(Foot Rot” for “(Take-all of”, “Conidia” for “Mycelial fragments”, “are” for “were”

[5] = test system: Mycosphaerella graminicola (Septoria tritici); experiment: Mycosphaerella graminicola (Septoria tritici) / liquid culture (Septoria blotch); details: Zymoseptoria tritici, growth inhibition photometrically 4-5 days after application, compared to untreated control
Protocol: as §1, with “18. Mycosphaerella graminicola (Septoria tritici)/Liquid” for “6. Gaeumannomyces Graminis/Liquid”, “(Septoria Blotch) Conidia” for “(Take-all of Cereals) Mycelial fragments”, “are” for “were”

Measured: inhibition of growth at 20 ppm

COC(=O)c1ccc2c(c1OC(F)F)B(O)OC2 [Compound 16, methyl 7-(difluoromethoxy)-1-hydroxy-3H-2,1-benzoxaborole-6-carboxylate]
≥ 80%: Gaeumannomyces graminis | Sclerotinia sclerotiorum | [1] | Pythium ultimum

COc1c(C(=O)OCC2SCCS2)ccc2c1B(O)OC2 [Compound 100, 1,3-dithiolan-2-ylmethyl 1-hydroxy-7-methoxy-3H-2,1-benzoxaborole-6-carboxylate]
≥ 80%: Gaeumannomyces graminis | [2] | [3] | [4] | Pythium ultimum

COc1c(C(=O)OCCOc2ccccc2C)ccc2c1B(O)OC2 [Compound 82, 2-(2-methylphenoxy)ethyl 1-hydroxy-7-methoxy-3H-2,1-benzoxaborole-6-carboxylate]
≥ 80%: Gaeumannomyces graminis | [5] | [3] | [4] | Pythium ultimum

COc1c(C(=O)OCC2CC2C)ccc2c1B(O)OC2 (centres unmarked) [Compound 118, (2-methylcyclopropyl)methyl 1-hydroxy-7-methoxy-3H-2,1-benzoxaborole-6-carboxylate]
≥ 80%: Gaeumannomyces graminis | [5] | [3] | [4] | Pythium ultimum

COc1cccc(C#CCOC(=O)c2ccc3c(c2OC)B(O)OC3)c1 [Compound 107, 3-(3-methoxyphenyl)prop-2-ynyl 1-hydroxy-7-methoxy-3H-2,1-benzoxaborole-6-carboxylate]
not listed: Sclerotinia sclerotiorum | [1]
≥ 80%: all other assays above

COc1c(C(=O)OCCc2ccccc2)ccc2c1B(O)OC2 [Compound 110, phenethyl 1-hydroxy-7-methoxy-3H-2,1-benzoxaborole-6-carboxylate]
not listed: Sclerotinia sclerotiorum | [2]
≥ 80%: all other assays above

COc1c(C(=O)OCCc2ccccc2F)ccc2c1B(O)OC2 [Compound 124, 2-(2-fluorophenyl)ethyl 1-hydroxy-7-methoxy-3H-2,1-benzoxaborole-6-carboxylate]
not listed: Sclerotinia sclerotiorum | [1]
≥ 80%: all other assays above

COc1c(C(=O)OCCc2scnc2C)ccc2c1B(O)OC2 [Compound 84, 2-(4-methylthiazol-5-yl)ethyl 1-hydroxy-7-methoxy-3H-2,1-benzoxaborole-6-carboxylate]
≥ 80%: Gaeumannomyces graminis | [3] | [4] | [1] | Pythium ultimum

COc1c(C(=O)OCCC(C)C)ccc2c1B(O)OC2 [Compound 129, isopentyl 1-hydroxy-7-methoxy-3H-2,1-benzoxaborole-6-carboxylate]
≥ 80%: Gaeumannomyces graminis | [5] | [3] | [4] | Pythium ultimum

COc1c(C(=O)OCC(F)(F)F)ccc2c1B(O)OC2 [Compound 10, 2,2,2-trifluoroethyl 1-hydroxy-7-methoxy-3H-2,1-benzoxaborole-6-carboxylate]
≥ 80%: Gaeumannomyces graminis | [5] | [3] | [4] | Pythium ultimum

CC#CCCOC(=O)c1ccc2c(c1OC)B(O)OC2 [Compound 105, pent-3-ynyl 1-hydroxy-7-methoxy-3H-2,1-benzoxaborole-6-carboxylate]
not listed: Sclerotinia sclerotiorum | [2]
≥ 80%: all other assays above

COc1c(C(=O)OC(CC(F)(F)F)c2ccccc2)ccc2c1B(O)OC2 (centres unmarked) [Compound 89, (3,3,3-trifluoro-1-phenyl-propyl) 1-hydroxy-7-methoxy-3H-2,1-benzoxaborole-6-carboxylate]
≥ 80%: Gaeumannomyces graminis | [2] | [3] | [4] | Pythium ultimum

COc1c(C(=O)Nc2nnc(C(F)(F)F)s2)ccc2c1B(O)OC2 [Compound 64, 1-hydroxy-7-methoxy-N-[5-(trifluoromethyl)-1,3,4-thiadiazol-2-yl]-3H-2,1-benzoxaborole-6-carboxamide]
≥ 80%: Gaeumannomyces graminis | Sclerotinia sclerotiorum | [3] | [4] | Pythium ultimum

COc1c(C(=O)OC(C)CCc2ccccc2)ccc2c1B(O)OC2 (centres unmarked) [Compound 130, (1-methyl-3-phenyl-propyl) 1-hydroxy-7-methoxy-3H-2,1-benzoxaborole-6-carboxylate]
not listed: Sclerotinia sclerotiorum | [1]
≥ 80%: all other assays above

COc1c(C(=O)OC2CC=CC2)ccc2c1B(O)OC2 [Compound 104, cyclopent-3-en-1-yl 1-hydroxy-7-methoxy-3H-2,1-benzoxaborole-6-carboxylate]
≥ 80%: Gaeumannomyces graminis | [5] | [3] | [4] | Pythium ultimum

COc1c(C(=O)OCc2ccccc2)ccc2c1B(O)OC2 [Compound 85, benzyl 1-hydroxy-7-methoxy-3H-2,1-benzoxaborole-6-carboxylate]
not listed: Sclerotinia sclerotiorum | [1]
≥ 80%: all other assays above

CCOC(=O)COC(=O)c1ccc2c(c1OC)B(O)OC2 [Compound 111, (2-ethoxy-2-oxo-ethyl) 1-hydroxy-7-methoxy-3H-2,1-benzoxaborole-6-carboxylate]
≥ 80%: Gaeumannomyces graminis | [2] | [3] | [4] | Pythium ultimum

COc1c(C(=O)OCC(C)(C)Cc2ccccc2)ccc2c1B(O)OC2 [Compound 117, (2,2-dimethyl-3-phenyl-propyl) 1-hydroxy-7-methoxy-3H-2,1-benzoxaborole-6-carboxylate]
≥ 80%: Gaeumannomyces graminis | [2] | [5] | [3] | [4]

COc1c(C(=O)OC(C)c2cccc(Cl)c2)ccc2c1B(O)OC2 (centres unmarked) [Compound 83, 1-(3-chlorophenyl)ethyl 1-hydroxy-7-methoxy-3H-2,1-benzoxaborole-6-carboxylate]
not listed: Sclerotinia sclerotiorum | [1]
≥ 80%: all other assays above
